ChEMBL document CHEMBL1275463, “Detection of the erythromycin rRNA methylase gene erm(A) in Enterococcus faecalis” (2008)
Values after ≈ are worked out from the molar mass of the structure shown.

Columns and labels:
Enterococcus faecalis [1] = assay: Antimicrobial activity against Enterococcus faecalis expressing rRNA methylase gene erm(A) obtained from pig manure by broth microdilution method; format: functional
Enterococcus faecalis [2] = assay: Antimicrobial activity against Enterococcus faecalis expressing rRNA methylase gene erm(A) obtained from human by broth microdilution method; format: functional

Compound	MIC (Enterococcus faecalis [1]) [mg/L]	MIC (Enterococcus faecalis [2]) [mg/L]
CC[C@H]1OC(=O)[C@H](C)[C@@H](O[C@H]2C[C@@](C)(OC)[C@@H](O)[C@H](C)O2)[C@H](C)[C@@H](O[C@@H]2O[C@H](C)C[C@H](N(C)C)[C@H]2O)[C@](C)(O)C[C@@H](C)C(=O)[C@H](C)[C@@H](O)[C@]1(C)O [ERYTHROMYCIN]	> 8	1 (≈ 1.36 µM)
CN(C)[C@@H]1C(O)=C(C(N)=O)C(=O)[C@@]2(O)C(O)=C3C(=O)c4c(O)cccc4[C@@](C)(O)[C@H]3C[C@@H]12 [TETRACYCLINE]	> 4	> 4
